# Test results reported in patent US20060292158A1, “Method for the treatment of cancer using a novel pharmaceutical composition containing at least one dolastatin 10 derivative” (priority 2004, published 2006).
# Assays:
# [1] = tested on: KPL-4 human breast carcinoma xenograft; assay: Antitumor activity in KPL-4 orthotopic xenograft in athymic nude mice, combination with pertuzumab (Example 2); assay type: in vivo; conditions: monotherapy 3, 4 or 6 mg/kg; day 21
# Method: The KPL-4 human breast carcinoma cell line was kindly donated by Prof. Kurebayashi, Kawasaki Medical Center. The cells were cultured in Dulbecco's MEM (Sigma Chemical Co.) supplemented with 5% (v/v) fetal bovine serum (Roche Diagnostics).
# One hundred (100) 5-week-old female athymic nude mice (BALB/c nu/nu) were purchased from Charles River Japan, Inc. (Yokohama, Japan). The mice were housed in an air-conditioned room (temperature 22±2° C., relative humidity 55±10%) under 12 h light/dark cycles. The mice were given sterilized CE-2 and tap water with 25μg/mL gentamycin ad libitum. […]
# The In vivo evaluation procedure for anticancer drugs was based on methods described by Plowman, et al. (1997) for xenograft models. […] The tumor volume and body weight of each mouse were measured twice a week. […] One week after the final injection, tumor growth inhibition (TGI) was calculated using the formula (1-T/C)×100 (%), where T (treated group) and C (control group) represent the mean tumor volume change. ED50 values were calculated from values of tumor growth inhibition on day 21 using the XL fit program. […]
# Packaged software (SAS preclinical package version 5.0, SAS Institute Japan, Ltd.) was used for the statistical analysis. […] ED50s were calculated from values of tumor growth inhibition percentage using XL fit program #509 (MS Excel Add-In: XLfit3 Version 3.0.5 Build 12, ID Business Solutions Ltd.)
# [2] = Maximum tolerated dose (neither lethality nor more than 20% body weight loss) in mice; conditions: BALB/c nu/nu (athymic nude), mouse, in vivo, dose with neither lethality nor more than 20% body weight loss
# Excerpt: The in vivo evaluation procedure for anticancer drugs was based on the methods described by Plowman, et al. (1997) for xenograft models. See, “Anticancer Drug Development Guide: Preclinical Screening, Clinical Trials, and Approval, Teicher B (ed) pp. 101-125, specifically Chap. 6, “Human Tumor Xenograft Models in NCI Drug Development”, hereby incorporated by reference.
# See, “Anticancer Drug Development Guide: Preclinical Screening, Clinical Trials, and Approval, Teicher B (ed) pp. 101-125, specifically Chap. 6, “Human Tumor Xenograft Models in NCI Drug Development”, hereby incorporated by reference.
# The in vivo evaluation procedure for anticancer drugs was based on the methods described by Plowman, et al. (1997) for xenograft models. See, “Anticancer Drug Development Guide: Preclinical Screening, Clinical Trials, and Approval, Teicher B (ed) pp. 101-125, specifically Chap.
structure (smiles),measurement,setting,value
"CC[C@H](C)[C@@H]([C@@H](CC(=O)N1CCC[C@H]1[C@H](SC)[C@@H](C)C(=O)N(C)CCc1cccc(O)c1)OC)N(C)C(=O)[C@@H](NC(=O)[C@H](C(C)C)N(C)C)C(C)C [compound of formula (I-A), N-[1-({1-sec-Butyl-4-[2-(2-{[2-(3-hydroxy-phenyl)-ethyl]-methyl-carbamoyl}-1-methylsulfanyl-propyl)-pyrrolidin-1-yl]-2-methoxy-4-oxo-butyl}-methyl-carbamoyl)-2-methyl-propyl]-2-dimethylamino-3-methyl-butyramide]",volume of tumor in comparison with control,[1],decreased strongly
same,MTD,[2],6 mg/kg
